Results from patent publication US7951815B2, “Substituted 1,4,8-triazaspiro [4,5]decan-2-one compounds” (Gruenenthal GmbH, priority 2004, dated 2011).

target: T1, 5-HT transporter (Rattus norvegicus, UniProt P31652); test: Inhibition of 5-HT uptake in rat brain synaptosomes; assay type: biochemical; conditions: Table III; rat, 1 μM
T1 construct: synaptosomes of rat brain areas are freshly isolated; from tissue; host or cells: rat brain synaptosomes (P2 fraction) from marrow and pons
T1 sequence (P31652 whole entry): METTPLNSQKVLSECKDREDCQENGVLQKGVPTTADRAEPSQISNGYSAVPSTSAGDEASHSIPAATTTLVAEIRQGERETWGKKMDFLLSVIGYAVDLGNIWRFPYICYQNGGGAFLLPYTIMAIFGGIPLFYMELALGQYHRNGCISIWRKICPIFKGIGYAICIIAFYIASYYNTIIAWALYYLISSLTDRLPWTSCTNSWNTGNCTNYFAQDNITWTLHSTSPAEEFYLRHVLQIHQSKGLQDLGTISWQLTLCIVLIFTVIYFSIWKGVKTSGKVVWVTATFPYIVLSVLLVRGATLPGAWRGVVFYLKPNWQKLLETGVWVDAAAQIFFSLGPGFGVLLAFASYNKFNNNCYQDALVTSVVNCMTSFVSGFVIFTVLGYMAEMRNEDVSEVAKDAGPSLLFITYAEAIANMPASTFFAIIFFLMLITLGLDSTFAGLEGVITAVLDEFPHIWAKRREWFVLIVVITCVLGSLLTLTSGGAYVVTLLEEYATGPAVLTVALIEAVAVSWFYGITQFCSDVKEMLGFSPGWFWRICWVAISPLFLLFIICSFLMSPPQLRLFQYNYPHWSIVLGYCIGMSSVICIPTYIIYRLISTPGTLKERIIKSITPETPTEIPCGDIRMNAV

| Uptake 5-HT, rat, 1 μM, % inhibition [%] | Structure (SMILES) |
| --- | --- |
| 44 | CC(=O)Nc1ccc(C(=O)N2CCC3(CC2)NC(CC(C)C)C(=O)N3CCCCOC(C)=O)cc1 (stereo not shown) [Example 255, Butyl 4-[8-(4-acetylaminobenzoyl)-3-isobutyl-2-oxo-1,4,8-triazaspiro[4,5]dec-1-yl]acetate] |
| 50 | C=CCN1C(=O)C(CCSC)NC12CCN(C(=O)c1ccc(S(N)(=O)=O)cc1)CC2 (stereo not shown) [Example 259, 4-[1-Allyl-3-(2-methylsulfanylethyl)-2-oxo-1,4,8-triazaspiro[4,5]decan-8-carbonyl]benzolsulfonamide] |
| 48 | CCOc1ccccc1C(=O)N1CCC2(CC1)NC(CC(C)C)C(=O)N2CCCCOC(C)=O (stereo not shown) [Example 310, Butyl 4-[8-(2-ethoxybenzoyl)-3-isobutyl-2-oxo-1,4,8-triazaspiro[4,5]dec-1-yl]acetate] |

| Structure (SMILES) | Uptake 5-HT, rat, 1 μM, % inhibition [%] |
| --- | --- |
| CC(=O)OC(C(=O)N1CCC2(CC1)NCC(=O)N2Cc1cccc(C#N)c1)c1ccccc1 (stereo not shown) [Example 284, Ethyl 2-[1-(3-cyanobenzyl)-2-oxo-1,4,8-triazaspiro[4,5]dec-8-yl]-2-oxo-1-phenylacetate] | 51 |

same assay, conditions: read-out: Uptake 5-HT, % inhibition; Table III; rat, 1 μM

| Structure (SMILES) | inhibition at 1 µM [%] |
| --- | --- |
| Cc1nnsc1C(=O)N1CCC2(CC1)NC(C(C)C)C(=O)N2Cc1ccccc1 (stereo not shown) [Example 216, 1-Benzyl-3-isopropyl-8-(4-methyl[1,2,3]thiadiazole-5-carbonyl)-1,4,8-triazaspiro[4,5]decan-2-one] | 55 |
| CCCCN1C(=O)C(CCSC)NC12CCN(C(=O)c1cc(C)oc1C)CC2 (stereo not shown) [Example 219, 1-Butyl-8-(2,5-dimethylfuran-3-carbonyl)-3-(2-methylsulfanylethyl)-1,4,8-triazaspiro[4,5]decan-2-one] | 30 |
| Cc1ccc(Cl)c(C(=O)N2CCC3(CC2)NC(Cc2ccccc2)C(=O)N3C)c1F (stereo not shown) [Example 224, 3-Benzyl-8-(6-chloro-2-fluoro-3-methylbenzoyl)-1-methyl-1,4,8-triazaspiro[4,5]decan-2-one] | 30 |
| CCCCN1C(=O)C(CCSC)NC12CCN(C(=O)c1cc(OC)cc(OC)c1)CC2 (stereo not shown) [Example 229, 1-Butyl-8-(3,5-dimethoxybenzoyl)-3-(2-methylsulfanylethyl)-1,4,8-triazaspiro[4,5]decan-2-one] | 36 |
| CSCCC1NC2(CCN(C(=O)c3c(F)ccc(C)c3F)CC2)N(C)C1=O (stereo not shown) [Example 231, 8-(2,6-Difluoro-3-methylbenzoyl)-1-methyl-3-(2-methylsulfanylethyl)-1,4,8-triazaspiro[4,5]decan-2-one] | 31 |
| CC(C)=CCN1C(=O)C(C(C)C)NC12CCN(C(=O)c1c(-c3c(F)cccc3Cl)noc1C)CC2 (stereo not shown) [Example 233, 8-[3-(2-Chloro-6-fluorophenyl)-5-methylisoxazole-4-carbonyl]-3-isopropyl-1-(3-methylbut-2-enyl)-1,4,8-triazaspiro[4,5]decan-2-one] | 30 |
| Cc1cc(C(=O)N2CCC3(CC2)NC(Cc2ccccc2)C(=O)N3C)no1 (stereo not shown) [Example 239, 3-Benzyl-1-methyl-8-(5-methylisoxazole-3-carbonyl)-1,4,8-triazaspiro[4,5]decan-2-one] | 36 |
| CCCCN1C(=O)C(Cc2ccccc2)NC12CCN(C(=O)c1snnc1C)CC2 (stereo not shown) [Example 243, 3-Benzyl-1-butyl-8-(4-methyl[1,2,3]thiadiazole-5-carbonyl)-1,4,8-triazaspiro[4,5]decan-2-one] | 46 |
| COC(=O)c1ccc(CN2C(=O)CNC23CCN(C(=O)c2cccnc2Cl)CC3)cc1 [Example 252, Methyl 4-[8-(2-chloropyridin-3-carbonyl)-2-oxo-1,4,8-triazaspiro[4,5]dec-1-ylmethyl]benzoate] | 73 |
| Cc1cc(C(=O)N2CCC3(CC2)NCC(=O)N3Cc2ccccc2F)n(C(C)(C)C)n1 [Example 253, 8-(2-tert-Butyl-5-methyl-2H-pyrazole-3-carbonyl)-1-(2-fluorobenzyl)-1,4,8-triazaspiro[4,5]decan-2-one] | 82 |
| C=CCN1C(=O)C(CCSC)NC12CCN(C(=O)C(=O)OCC)CC2 (stereo not shown) [Example 261, Ethyl 2-[1-allyl-3-(2-methylsulfanylethyl)-2-oxo-1,4,8-triazaspiro[4,5]dec-8-yl]-2-oxo-acetate] | 39 |
| CCOC(=O)CN1C(=O)C(CCSC)NC12CCN(C(=O)CC)CC2 (stereo not shown) [Example 263, Ethyl [3-(2-methylsulfanylethyl)-2-oxo-8-propionyl-1,4,8-triazaspiro[4,5]dec-1-yl]acetate] | 50 |
| COC(=O)c1ccc(CN2C(=O)CNC23CCN(C(=O)C2CCCC2)CC3)cc1 [Example 269, Methyl 4-(8-cyclopentanecarbonyl-2-oxo-1,4,8-triazaspiro[4,5]dec-1-ylmethyl)benzoate] | 40 |
| COc1cc(C(=O)N2CCC3(CC2)NCC(=O)N3Cc2cccc(C#N)c2)cc(OC)c1OC [Example 277, 3-[2-Oxo-8-(3,4,5-trimethoxybenzoyl)-1,4,8-triazaspiro[4,5]dec-1-ylmethyl]benzonitrile] | 43 |
| COC(=O)c1ccc(CN2C(=O)CNC23CCN(C(=O)Cc2ccccc2)CC3)cc1 [Example 283, Methyl 4-(2-oxo-8-phenylacetyl-1,4,8-triazaspiro[4,5]dec-1-ylmethyl)benzoate] | 51 |
| N#Cc1cccc(CN2C(=O)CNC23CCN(C(=O)c2ccccc2C(F)(F)F)CC3)c1 [Example 308, 3-[2-Oxo-8-(2-trifluoromethylbenzoyl)-1,4,8-triazaspiro[4,5]dec-1-ylmethyl]benzonitrile] | 59 |
| Cn1nc(C(C)(C)C)cc1C(=O)N1CCC2(CC1)NCC(=O)N2Cc1ccccc1F [Example 313, 8-(5-tert-Butyl-2-methyl-2H-pyrazole-3-carbonyl)-1-(2-fluorobenzyl)-1,4,8-triazaspiro[4,5]decan-2-one] | 60 |
| CCOC(=O)CN1C(=O)C(Cc2ccccc2)NC12CCN(C(=O)C1CCC1)CC2 (stereo not shown) [Example 319, Ethyl (3-benzyl-8-cyclobutanecarbonyl-2-oxo-1,4,8-triazaspiro[4,5]dec-1-yl)acetate] | 70 |
| COc1ccc(CC(=O)N2CCC3(CC2)NCC(=O)N3Cc2ccccc2F)cc1 [Example 320, 1-(2-Fluorobenzyl)-8-[2-(4-methoxyphenyl)acetyl]-1,4,8-triazaspiro[4,5]decan-2-one] | 38 |
| C=CCN1C(=O)C(C(C)C)NC12CCN(C(=O)c1ccccc1C)CC2 (stereo not shown) [Example 325, 1-Allyl-3-isopropyl-8-(2-methylbenzoyl)-1,4,8-triazaspiro[4,5]decan-2-one] | 32 |

Continued, values first:

| inhibition at 1 µM [%] | Structure (SMILES) |
| --- | --- |
| 32 | COC(=O)c1ccc(CN2C(=O)C(C(C)C)NC23CCN(C(=O)c2cccnc2SC)CC3)cc1 (stereo not shown) [Example 194, Methyl 4-[3-isopropyl-8-(2-methylsulfanylpyridin-3-carbonyl)-2-oxo-1,4,8-triazaspiro[4,5]dec-1-ylmethyl]benzoate] |
| 56 | CCCCN1C(=O)C(Cc2ccccc2)NC12CCN(C(=O)c1ccccn1)CC2 (stereo not shown) [Example 202, 3-Benzyl-1-butyl-8-(pyridin-2-carbonyl)-1,4,8-triazaspiro[4,5]decan-2-one] |
| 55 | CCCCN1C(=O)C(CCSC)NC12CCN(C(=O)C1CCCCC1)CC2 (stereo not shown) [Example 206, 1-Butyl-8-cyclohexanecarbonyl-3-(2-methylsulfanylethyl)-1,4,8-triazaspiro[4,5]decan-2-one] |
| 60 | C#CCN1C(=O)C(CCSC)NC12CCN(C(=O)CCCOc1ccccc1)CC2 (stereo not shown) [Example 222, 3-(2-Methylsulfanylethyl)-8-(4-phenoxybutyryl)-1-prop-2-ynyl-1,4,8-triazaspiro[4,5]decan-2-one] |
| 32 | CC(C)C1NC2(CCN(C(=O)c3ccco3)CC2)N(Cc2ccccc2)C1=O (stereo not shown) [Example 228, 1-Benzyl-8-(furan-2-carbonyl)-3-isopropyl-1,4,8-triazaspiro[4,5]decan-2-one] |
| 45 | C#CCN1C(=O)C(CC(C)C)NC12CCN(C(=O)c1ccc(OC(F)(F)F)cc1)CC2 (stereo not shown) [Example 234, 3-Isobutyl-1-prop-2-ynyl-8-(4-trifluoromethoxybenzoyl)-1,4,8-triazaspiro[4,5]decan-2-one] |
| 51 | C#CCN1C(=O)C(Cc2ccccc2)NC12CCN(C(=O)c1snnc1C)CC2 (stereo not shown) [Example 244, 3-Benzyl-8-(4-methyl[1,2,3]thiadiazole-5-carbonyl)-1-prop-2-ynyl-1,4,8-triazaspiro[4,5]decan-2-one] |
| 50 | C#CCN1C(=O)C(Cc2ccccc2)NC12CCN(C(=O)c1cc(C)on1)CC2 (stereo not shown) [Example 251, 3-Benzyl-8-(5-methylisoxazole-3-carbonyl)-1-prop-2-ynyl-1,4,8-triazaspiro[4,5]decan-2-one] |
| 34 | COC(=O)c1ccc(CN2C(=O)CNC23CCN(C(=O)c2cccnc2SC)CC3)cc1 [Example 254, Methyl 4-[8-(2-methylsulfanylpyridin-3-carbonyl)-2-oxo-1,4,8-triazaspiro[4,5]dec-1-ylmethyl]benzoate] |
| 49 | COCC(=O)N1CCC2(CC1)NC(C(C)C)C(=O)N2Cc1cccc(C#N)c1 (stereo not shown) [Example 282, 3-[3-Isopropyl-8-(2-methoxyacetyl)-2-oxo-1,4,8-triazaspiro[4,5]dec-1-ylmethyl]benzonitrile] |
| 47 | COC(=O)c1ccc(CN2C(=O)CNC23CCN(C(=O)C2CCCCC2)CC3)cc1 [Example 286, Methyl 4-(8-cyclohexanecarbonyl-2-oxo-1,4,8-triazaspiro[4,5]dec-1-ylmethyl)benzoate] |
| 49 | COc1cccc(C(=O)N2CCC3(CC2)NCC(=O)N3Cc2ccccc2F)c1 [Example 311, 1-(2-Fluorobenzyl)-8-(3-methoxybenzoyl)-1,4,8-triazaspiro[4,5]decan-2-one] |
| 61 | CCOC(=O)CN1C(=O)C(Cc2ccccc2)NC12CCN(C(=O)c1ccccc1F)CC2 (stereo not shown) [Example 315, Ethyl [3-benzyl-8-(2-fluorobenzoyl)-2-oxo-1,4,8-triazaspiro[4,5]dec-1-yl]acetate] |
